In the supplement of paper PMC10307832:

Assays:
Assay in all cases: relative viability (nuclei count vs DMSO), 5 days (fraction); higher = more cells survive
[1] = test system: RERF-LC-KJ
Outline: (§1)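 Cells from lung cancer lines were seeded into 1536-well plates and, one day later, dosed by pin tool. Treatments were either a single drug or a fixed dose of an anchor drug with five library-drug doses (not always all listed) in √10 steps. After 5 days, nuclei were stained in a one-step fixation (final 0.05% Triton X-100, 1% formaldehyde, 1 ug/ml Hoechst) and counted on 4× images, and relative viability is the treated-to-vehicle nuclei ratio, as the median of duplicate plates.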

[2] = test system: NCI-H23
Outline: as §1

[3] = test system: LOU-NH91
Outline: as §1

[4] = test system: NCI-H1666
Outline: as §1

[5] = test system: NCI-H460
Outline: as §1

[6] = test system: NCI-H1355
Outline: as §1

[7] = test system: EKVX
Outline: as §1

[8] = test system: NCI-H650
Outline: as §1

[9] = test system: NCI-H838
Outline: as §1

[10] = test system: NCI-H1650
Outline: as §1

[11] = test system: LU99A
Outline: as §1

[12] = test system: NCI-H1993
Outline: as §1

Compound: O=C(O)CCCCC(CCSCc1ccccc1)SCc1ccccc1 (stereo unspecified) [CPI-613] + CC(=O)c1c(C)c2cnc(Nc3ccc(N4CCNCC4)cn3)nc2n(C2CCCC2)c1=O [Palbociclib] (partner 0.5 µM)
- relative viability ([1]; first compound 5 µM): 1.07
- relative viability ([1]; first compound 15.81 µM): 0.952
- relative viability ([1]; first compound 50 µM): 1.09
- relative viability ([1]; first compound 158.11 µM): 0.615
- relative viability ([1]; first compound 500 µM): 0.571
- relative viability ([2]; first compound 5 µM): 0.465
- relative viability ([2]; first compound 15.81 µM): 0.465
- relative viability ([2]; first compound 50 µM): 0.519
- relative viability ([2]; first compound 158.11 µM): 0.104
- relative viability ([2]; first compound 500 µM): 0.0119
- relative viability ([3]; first compound 5 µM): 0.506
- relative viability ([3]; first compound 15.81 µM): 0.548
- relative viability ([3]; first compound 50 µM): 0.522
- relative viability ([3]; first compound 158.11 µM): 0.402
- relative viability ([3]; first compound 500 µM): 0.435
- relative viability ([4]; first compound 5 µM): 0.68
- relative viability ([4]; first compound 15.81 µM): 0.577
- relative viability ([4]; first compound 50 µM): 0.574
- relative viability ([4]; first compound 158.11 µM): 0.469
- relative viability ([4]; first compound 500 µM): 0.425
- relative viability ([5]; first compound 5 µM): 0.197
- relative viability ([5]; first compound 15.81 µM): 0.0984
- relative viability ([5]; first compound 50 µM): 0.0912
- relative viability ([5]; first compound 158.11 µM): 0.0107
- relative viability ([5]; first compound 500 µM): 0.0087
- relative viability ([6]; first compound 5 µM): 0.429
- relative viability ([6]; first compound 15.81 µM): 0.408
- relative viability ([6]; first compound 50 µM): 0.424
- relative viability ([6]; first compound 158.11 µM): 0.407
- relative viability ([6]; first compound 500 µM): 0.105
- relative viability ([7]; first compound 5 µM): 0.372
- relative viability ([7]; first compound 15.81 µM): 0.449
- relative viability ([7]; first compound 50 µM): 0.404
- relative viability ([7]; first compound 500 µM): 0.378
- relative viability ([8]; first compound 5 µM): 0.337
- relative viability ([8]; first compound 15.81 µM): 0.312
- relative viability ([8]; first compound 50 µM): 0.306
- relative viability ([8]; first compound 158.11 µM): 0.269
- relative viability ([8]; first compound 500 µM): 0.262
- relative viability ([9]; first compound 5 µM): 0.21
- relative viability ([9]; first compound 15.81 µM): 0.189
- relative viability ([9]; first compound 50 µM): 0.216
- relative viability ([9]; first compound 158.11 µM): 0.139
- relative viability ([9]; first compound 500 µM): 0.0859
- relative viability ([10]; first compound 5 µM): 0.326
- relative viability ([10]; first compound 15.81 µM): 0.276
- relative viability ([10]; first compound 50 µM): 0.317
- relative viability ([10]; first compound 158.11 µM): 0.0807
- relative viability ([10]; first compound 500 µM): 0.0173
- relative viability ([11]; first compound 5 µM): 0.383
- relative viability ([11]; first compound 15.81 µM): 0.411
- relative viability ([11]; first compound 50 µM): 0.372
- relative viability ([11]; first compound 158.11 µM): 0.193
- relative viability ([11]; first compound 500 µM): 0.264
- relative viability ([12]; first compound 5 µM): 0.611
- relative viability ([12]; first compound 15.81 µM): 0.581
